# The source made the active and inactive calls. No cut-off for these calls is given here.
# Experiments:
# Staphylococcus aureus [1] = test: Induction of resistance development in Staphylococcus aureus assessed as fold increase in MIC at sub-MIC measured after 20 passages relative to control; assay type: functional
# Escherichia coli = test: Antimicrobial activity against Escherichia coli incubated for 16 to 18 hrs by broth dilution assay; assay type: functional; details: time 16-18 hrs
# Staphylococcus aureus [2] = test: Induction of resistance development in drug-resistant Staphylococcus aureus assessed as fold increase in MIC of cefuroxime sodium at sub-MIC measured after 20 passages relative to control; assay type: functional
# Staphylococcus aureus [3] = test: Induction of resistance development in drug-resistant Staphylococcus aureus assessed as fold increase in MIC of ampicillin sodium at sub-MIC measured after 20 passages relative to control; assay type: functional
# Staphylococcus aureus [4] = test: Antimicrobial activity against Staphylococcus aureus incubated for 16 to 18 hrs by broth dilution assay; assay type: functional; details: time 16-18 hrs
# [5] = system: Stenotrophomonas maltophilia; test: Antimicrobial activity against Stenotrophomonas maltophilia incubated for 16 to 18 hrs by broth dilution assay; assay type: functional; details: time 16-18 hrs
# Enterococcus faecalis = test: Antimicrobial activity against Enterococcus faecalis incubated for 16 to 18 hrs by broth dilution assay; assay type: functional; details: time 16-18 hrs
# Staphylococcus aureus [6] = test: Induction of resistance development in drug-resistant Staphylococcus aureus assessed as fold increase in MIC of rifampicin at sub-MIC measured after 20 passages relative to control; assay type: functional
# [7] = Hemolytic activity in sheep red blood cells incubated for 1 hr; assay type: toxicity, cell-based, Ovis aries, Erythrocyte
# Staphylococcus aureus [8] = test: Induction of resistance development in drug-resistant Staphylococcus aureus assessed as fold increase in MIC of levofloxacin at sub-MIC measured after 20 passages relative to control; assay type: functional
# Staphylococcus aureus [9] = test: Antibacterial activity against Staphylococcus aureus infected in Kunming mouse model of subcutaneous abscess assessed as surviving bacteria in skin tissue at 10 mg/kg, sc measured after 48 hrs relative to control; assay type: functional
# Staphylococcus aureus [10] = test: Induction of resistance development in drug-resistant Staphylococcus aureus at sub-MIC measured after 20 passages in presence of ciprofloxacin; assay type: functional, organism-based
# Staphylococcus aureus [11] = test: Disruption of cell membrane in Staphylococcus aureus assessed as nucleic acid leakage at 32 ug/ml measured after 2 hrs by fluorescence based analysis; assay type: functional, organism-based; details: dose 32.0 µg/ml
# Staphylococcus aureus [12] = test: Inhibition of biofilm formation in Staphylococcus aureus assessed as decrease in bacterial count at 32 times MIC incubated for 24 hrs by CLSM analysis; assay type: functional, organism-based
# Staphylococcus aureus [13] = test: Antibacterial activity against Staphylococcus aureus infected in Kunming mouse model of subcutaneous abscess assessed as decrease in neutrophil level in skin tissue at 5 mg/kg, sc measured after 48 hrs by H and E staining based analysis; assay type: functional, organism-based
# Staphylococcus aureus [14] = test: Bactericidal activity against Staphylococcus aureus measured for 3 to 6 hrs in presence of 50% sheep plasma; assay type: functional, organism-based; details: time 3-6 hrs
# [15] = Toxicity in Kunming mouse model of subcutaneous abscess infected with Staphylococcus aureus assessed as histopathological abnormalities in liver at 5 to 10 mg/kg, sc measured after 48 hrs by H and E staining based analysis; assay type: organism-based; details: in vivo, dose 5-10 mg/kg
# Staphylococcus aureus [16] = test: Induction of resistance development in Staphylococcus aureus at sub-MIC measured after 20 passages; assay type: functional, organism-based
# Staphylococcus aureus [17] = test: Induction of resistance development in drug-resistant Staphylococcus aureus at sub-MIC measured after 20 passages in presence of rifampicin; assay type: functional, organism-based
# Staphylococcus aureus [18] = test: Induction of resistance development in drug-resistant Staphylococcus aureus at sub-MIC measured after 20 passages in presence of linezolid; assay type: functional, organism-based
# [19] = Toxicity in Kunming mouse model of subcutaneous abscess infected with Staphylococcus aureus assessed as histopathological abnormalities in spleen at 5 to 10 mg/kg, sc measured after 48 hrs by H and E staining based analysis; assay type: organism-based; details: in vivo, dose 5-10 mg/kg
# [20] = Toxicity in Kunming mouse model of subcutaneous abscess infected with Staphylococcus aureus assessed as histopathological abnormalities in kidney at 5 to 10 mg/kg, sc measured after 48 hrs by H and E staining based analysis; assay type: organism-based; details: in vivo, dose 5-10 mg/kg
# Staphylococcus aureus [21] = test: Antibacterial activity against Staphylococcus aureus assessed as effect on quiescent cells at 100 to 200 times MIC incubated for 24 hrs; assay type: functional, organism-based
# Staphylococcus aureus [22] = test: Antibacterial activity against Staphylococcus aureus infected in Kunming mouse model of subcutaneous abscess assessed as reduction in bacterial load in skin tissue at 10 mg/kg, sc measured after 48 hrs relative to control; assay type: functional; parameters: scale not given: the % may be the effect or the level left
# Staphylococcus aureus [23] = test: Inhibition of metabolic activity in Staphylococcus aureus incubated for 6 hrs by Alamar blue assay; assay type: functional, organism-based
# Staphylococcus aureus [24] = test: Antibacterial activity against Staphylococcus aureus infected in Kunming mouse model of subcutaneous abscess assessed as reduction in number of bacteria in skin tissue at 5 to 10 mg/kg, sc measured after 48 hrs; assay type: functional, organism-based; details: dose 5-10 mg/kg
# Staphylococcus aureus [25] = test: Disruption of cell membrane in Staphylococcus aureus assessed as protein leakage at 32 ug/ml measured after 2 hrs by fluorescence based analysis; assay type: functional, organism-based; details: dose 32.0 µg/ml
# Staphylococcus aureus [26] = test: Induction of resistance development in drug-resistant Staphylococcus aureus at sub-MIC measured after 20 passages in presence of levofloxacin; assay type: functional, organism-based
# [27] = Toxicity in Kunming mouse model of subcutaneous abscess infected with Staphylococcus aureus assessed as histopathological abnormalities in lung at 5 to 10 mg/kg, sc measured after 48 hrs by H and E staining based analysis; assay type: organism-based; details: in vivo, dose 5-10 mg/kg
# [28] = Cytotoxicity against human HeLa cells incubated for 24 hrs by CCK8 assay; assay type: toxicity, cell-based
# Staphylococcus aureus [29] = test: Inhibition of biofilm formation in Staphylococcus aureus assessed as reduction in number of live bacterial count at 16 times MIC incubated for 24 hrs; assay type: functional
# Staphylococcus aureus [30] = test: Induction of resistance development in drug-resistant Staphylococcus aureus at sub-MIC measured after 20 passages in presence of cefuroxime sodium; assay type: functional, organism-based
# [31] = Cytotoxicity against HUVEC cells incubated for 24 hrs by CCK8 assay; assay type: toxicity, cell-based; details: human
# [32] = Toxicity in Kunming mouse model of subcutaneous abscess infected with Staphylococcus aureus assessed as damage in spleen at 5 to 10 mg/kg, sc measured after 48 hrs by H and E staining based analysis; assay type: organism-based; details: in vivo, dose 5-10 mg/kg
# Staphylococcus aureus [33] = test: Antibacterial activity against Staphylococcus aureus infected in Kunming mouse model of subcutaneous abscess assessed as decrease in inflammation in skin tissue at 5 mg/kg, sc measured after 48 hrs by H and E staining based analysis; assay type: functional, organism-based
# Staphylococcus aureus [34] = test: Antibacterial activity against Staphylococcus aureus infected in Kunming mouse model of subcutaneous abscess assessed as decrease in inflammatory cell infiltration in skin tissue at 10 mg/kg, sc measured after 48 hrs by H and E staining based analysis; assay type: functional, organism-based
# [35] = Toxicity in Kunming mouse model of subcutaneous abscess infected with Staphylococcus aureus assessed as histopathological abnormalities in heart at 5 to 10 mg/kg, sc measured after 48 hrs by H and E staining based analysis; assay type: organism-based; details: in vivo, dose 5-10 mg/kg
# Staphylococcus aureus [36] = test: Antibacterial activity against Staphylococcus aureus in presence of 50% sheep plasma; assay type: functional, organism-based
# Staphylococcus aureus [37] = test: Antibacterial activity against rifampicin-induced persistant Staphylococcus aureus assessed as decrease in CFU at 200 times MIC measured for 10 hrs; assay type: functional, organism-based
# Staphylococcus aureus [38] = test: Induction of resistance development in drug-resistant Staphylococcus aureus at sub-MIC measured after 20 passages in presence of vancomycin; assay type: functional, organism-based
# Staphylococcus aureus [39] = test: Induction of resistance development in drug-resistant Staphylococcus aureus at sub-MIC measured after 20 passages in presence of norfloxacin; assay type: functional, organism-based
# Staphylococcus aureus [40] = test: Bactericidal activity against Staphylococcus aureus assessed as reduction in bacterial colony count at 4 to 8 times MIC incubated for 8 hrs by time kill assay; assay type: functional, organism-based
# Staphylococcus aureus [41] = test: Induction of intracellular ROS accumulation in Staphylococcus aureus at 1 to 4 times MIC incubated overnight by DCFH-DA dye based analysis; assay type: functional, organism-based
# [42] = Toxicity in Kunming mouse model of subcutaneous abscess infected with Staphylococcus aureus assessed as damage in kidney at 5 to 10 mg/kg, sc measured after 48 hrs by H and E staining based analysis; assay type: organism-based; details: in vivo, dose 5-10 mg/kg
# Staphylococcus aureus [43] = test: Induction of resistance development in drug-resistant Staphylococcus aureus at sub-MIC measured after 20 passages in presence of ampicillin sodium; assay type: functional, organism-based
# [44] = Toxicity in Kunming mouse model of subcutaneous abscess infected with Staphylococcus aureus assessed as damage in heart at 5 to 10 mg/kg, sc measured after 48 hrs by H and E staining based analysis; assay type: organism-based; details: in vivo, dose 5-10 mg/kg
# [45] = Toxicity in Kunming mouse model of subcutaneous abscess infected with Staphylococcus aureus assessed as damage in liver at 5 to 10 mg/kg, sc measured after 48 hrs by H and E staining based analysis; assay type: organism-based; details: in vivo, dose 5-10 mg/kg
# Staphylococcus aureus [46] = test: Antibacterial activity against Staphylococcus aureus in presence of 50% FBS; assay type: functional, organism-based
# [47] = Toxicity in Kunming mouse model of subcutaneous abscess infected with Staphylococcus aureus assessed as damage in lung at 5 to 10 mg/kg, sc measured after 48 hrs by H and E staining based analysis; assay type: organism-based; details: in vivo, dose 5-10 mg/kg
compound,measurement,setting,value
O=C(Cc1ccccc1)N[C@@H]1C(=O)N2C(C(=O)O)=C(C[n+]3ccccc3)CS[C@H]12.[I-],fold change (FC),Staphylococcus aureus [1],64
same,MIC,Escherichia coli,32 µg/mL
same,fold change (FC),Staphylococcus aureus [2],>128
same,fold change (FC),Staphylococcus aureus [3],64
same,MIC,Staphylococcus aureus [4],0.063 µg/mL
same,MIC,[5],64 µg/mL
same,MIC,Enterococcus faecalis,16 µg/mL
same,fold change (FC),Staphylococcus aureus [6],8
same,HC50 at 1 h,[7],> 1280 µg/mL
CCCCCCCCCC[n+]1ccc(-c2cc[n+](CC3=C(C(=O)[O-])N4C(=O)[C@@H](NC(=O)Cc5ccccc5)[C@H]4SC3)cc2)cc1.O=C([O-])C(F)(F)F,fold change (FC),Staphylococcus aureus [8],8
same,Activity,Staphylococcus aureus [9],0.02%
same,Activity,Staphylococcus aureus [10],inactive
same,Activity,Staphylococcus aureus [11],inactive
same,inhibition,Staphylococcus aureus [12],inactive
same,Activity,Staphylococcus aureus [13],Active
same,MIC,Escherichia coli,128 µg/mL
same,Activity,Staphylococcus aureus [14],Active
same,Activity,[15],Non-toxic
same,Activity,Staphylococcus aureus [16],inactive
same,Activity,Staphylococcus aureus [17],inactive
same,Activity,Staphylococcus aureus [18],inactive
same,Activity,[19],Non-toxic
same,Activity,[20],Non-toxic
same,Activity,Staphylococcus aureus [21],inactive
same,Activity,Staphylococcus aureus [22],99.98%
same,inhibition,Staphylococcus aureus [23],Dose-dependent-effect
same,Activity,Staphylococcus aureus [24],Active
same,Activity,Staphylococcus aureus [25],inactive
same,Activity,Staphylococcus aureus [26],inactive
same,Activity,[27],Non-toxic
same,CC50 at 24 h,[28],26.9 µg/mL
same,Activity,Staphylococcus aureus [29],~1 10^3CFU/ml
same,Activity,Staphylococcus aureus [30],inactive
same,CC50 at 24 h,[31],> 64 µg/mL
same,MIC,Staphylococcus aureus [4],0.063 µg/mL
same,Activity,[32],Non-toxic
same,MIC,[5],128 µg/mL
same,Activity,Staphylococcus aureus [33],Active
same,Activity,Staphylococcus aureus [34],Active; Compound Activity On Skin Was Similar To Healthy Mouse
same,MIC,Enterococcus faecalis,4 µg/mL
same,Activity,[35],Non-toxic
same,Activity,Staphylococcus aureus [36],Active; Mic Value Of Compound In Plasma Was Equal To Mic In Mhb Medium
same,Activity,Staphylococcus aureus [37],inactive
same,Activity,Staphylococcus aureus [38],inactive
same,Activity,Staphylococcus aureus [39],inactive
same,Activity,Staphylococcus aureus [40],Active
same,Activity,Staphylococcus aureus [41],inactive
same,Activity,[42],Non-toxic
same,Activity,Staphylococcus aureus [43],inactive
same,Activity,[44],Non-toxic
same,Activity,[45],Non-toxic
same,HC50 at 1 h,[7],> 1280 µg/mL
same,Activity,Staphylococcus aureus [46],Active; Mic Value Of Compound In Serum Was Equal To Mic In Mhb Medium
same,Activity,[47],Non-toxic

# Source: ChEMBL document CHEMBL6115036, “Exploration of membrane-active cephalosporin derivatives as potent antibacterial agents against Staphylococcus aureus biofilms and persisters” (Eur J Med Chem, 2025)
